Laboratory results published in patent US11358969B2, “Indole AHR inhibitors and uses thereof” (Ikena Oncology, Inc., priority 2017, dated 2022).

Biological target: T1, AHR (UniProt P35869)
T1 construct: IC50
T1 sequence (P35869 1-848): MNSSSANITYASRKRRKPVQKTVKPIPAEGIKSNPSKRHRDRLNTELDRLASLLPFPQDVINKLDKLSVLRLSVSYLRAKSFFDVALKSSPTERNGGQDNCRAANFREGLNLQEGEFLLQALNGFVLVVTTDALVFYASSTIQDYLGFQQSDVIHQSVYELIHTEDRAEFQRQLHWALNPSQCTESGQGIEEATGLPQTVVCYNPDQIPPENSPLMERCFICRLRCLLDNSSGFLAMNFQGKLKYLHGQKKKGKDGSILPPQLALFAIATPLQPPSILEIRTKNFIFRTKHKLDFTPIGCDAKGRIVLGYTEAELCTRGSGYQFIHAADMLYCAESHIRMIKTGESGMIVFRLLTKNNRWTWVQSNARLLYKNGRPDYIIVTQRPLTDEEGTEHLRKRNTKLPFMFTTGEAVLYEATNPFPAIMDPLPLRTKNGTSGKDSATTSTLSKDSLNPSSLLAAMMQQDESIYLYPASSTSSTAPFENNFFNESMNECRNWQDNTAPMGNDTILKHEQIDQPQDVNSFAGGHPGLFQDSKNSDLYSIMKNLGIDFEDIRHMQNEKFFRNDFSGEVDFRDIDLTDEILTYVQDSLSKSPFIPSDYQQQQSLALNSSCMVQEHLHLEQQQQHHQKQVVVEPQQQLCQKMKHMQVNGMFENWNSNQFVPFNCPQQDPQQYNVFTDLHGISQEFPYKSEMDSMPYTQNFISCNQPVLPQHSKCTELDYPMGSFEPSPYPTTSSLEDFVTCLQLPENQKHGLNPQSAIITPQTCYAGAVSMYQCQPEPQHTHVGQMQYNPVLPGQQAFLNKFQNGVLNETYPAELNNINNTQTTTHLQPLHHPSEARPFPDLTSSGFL
Test: DRE-Luciferase Reporter Assay (Alternate Method) (Example 1B)
Format: cell-based, murine or human
Conditions: cell line and AHR activating ligand not specified

| Compound | IC50 [nM] |
| --- | --- |
| Fc1cncc(-c2nc(NC3CCc4[nH]c5ccccc5c4C3)n3ncc(CNC4CC4)c3n2)c1 (stereo not drawn) [I-276] | < 500 |
| CC(C)c1cnn2c(NC3CCc4[nH]c5ccccc5c4C3)nc(-c3ccc(OC(F)(F)F)cc3)nc12 (stereo not drawn) [I-269] | > 1500 |
| CSc1nc(N[C@@H]2CCc3[nH]c4ccccc4c3C2)n2ncc(C(C)C)c2n1 [I-122, (3R)—N-(8-Isopropyl-2-methylsulfanyl-pyrazolo[1,5-a][1,3,5]triazin-4-yl)-2,3,4,9-tetrahydro-1H-carbazol-3-amine] | > 1500 |
| CC(C)(C)c1cnn2c(N[C@@H]3CCc4[nH]c5ccccc5c4C3)nc(-c3cncc(F)c3)nc12 [I-132, (R)—N-(8-(tert-Butyl)-2-(5-fluoropyridin-3-yl)pyrazolo[1,5-a][1,3,5]triazin-4-yl)-2,3,4,9-tetrahydro-1H-carbazol-3-amine] | 500 to 1000 |
| CC(C)N(C)c1cc(NCCc2c[nH]c3ccccc23)nc(-c2cncc(F)c2)n1 [I-93, 2-(5-Fluoro-3-pyridyl)-N6-[2-(1H-indol-3-yl)ethyl]-N4-isopropyl-N4-methyl-pyrimidine-4,6-diamine] | < 500 |
| CC(C)c1cnn2c(N[C@@H]3CCc4c([nH]c5ccccc45)C3)nc(-c3cncc(F)c3)nc12 [I-146b] | > 1500 |
| CC(C)c1cnn2c(N[C@@H]3CCc4[nH]c(-c5ccccc5)cc4C3)nc(-c3cncc(F)c3)nc12 [I-249b, 2-(5-Fluoro-3-pyridyl)-8-isopropyl-N-[(5R)-2-phenyl-4,5,6,7-tetrahydro-1H-indol-5-yl]pyrazolo[1,5-a][1,3,5]triazin-4-amine] | < 500 |
| CC(C)c1cnn2c(NC3CCc4[nH]c5ccccc5c4C3)nc(-n3ccnc3)nc12 (stereo not drawn) [I-281] | < 500 |
| CON(C)C(=O)c1cnn2c(NC3CCc4[nH]c5ccccc5c4C3)nc(-c3cncc(F)c3)nc12 (stereo not drawn) [I-286] | < 500 |
| CC(C)c1cnn2c(N[C@H]3CCc4[nH]c(-c5ccccc5)cc4C3)nc(-c3cncc(F)c3)nc12 [I-249a, 2-(5-Fluoro-3-pyridyl)-8-isopropyl-N-[(5S)-2-phenyl-4,5,6,7-tetrahydro-1H-indol-5-yl]pyrazolo[1,5-a][1,3,5]triazin-4-amine] | < 500 |
| Fc1cncc(-c2nc(NCCc3c[nH]c4ccccc34)cc(N3CCNCC3)n2)c1 [I-60, 2-(5-Fluoro-3-pyridyl)-N-[2-(1H-indol-3-yl)ethyl]-6-piperazin-1-yl-pyrimidin-4-amine] | 500 to 1000 |
| Fc1cncc(-c2nc(NCCc3c[nH]c4ccccc34)n3ncc(Br)c3n2)c1 [I-141, 8-bromo-2-(5-fluoro-3-pyridyl)-N-[2-(1H-indol-3-yl)ethyl]pyrazolo[1,5-a][1,3,5]triazin-4-amine] | < 500 |
| Fc1cncc(-c2nc(N[C@@H]3CCc4[nH]c5ccccc5c4C3)n3ncc(C(F)(F)F)c3n2)c1 [I-267, (3R)—N-[2-(5-Fluoro-3-pyridyl)-8-(trifluoromethyl)pyrazolo[1,5-a][1,3,5]triazin-4-yl]-2,3,4,9-tetrahydro-1H-carbazol-3-amine] | < 500 |
| CC(C)Oc1cc(NCCc2c[nH]c3cccnc23)nc(-c2cncc(F)c2)n1 [I-104, 2-(5-Fluoro-3-pyridyl)-6-isopropoxy-N-[2-(1H-pyrrolo[3,2-b]pyridin-3-yl)ethyl]pyrimidin-4-amine] | 500 to 1000 |
| CC(C)c1cnn2c(NC3CCc4[nH]c5ccccc5c4C3)nc(C3CCCCC3)nc12 (stereo not drawn) [I-268] | > 1500 |
| CC(C)c1cnn2c(NCCc3c[nH]c4ccccc34)cc(-c3cccc4c3OCO4)nc12 [I-227, 5-(1,3-Benzodioxol-4-yl)-N-[2-(1H-indol-3-yl)ethyl]-3-isopropyl-pyrazolo[1,5-a]pyrimidin-7-amine] | < 500 |
| OCc1cnn2c(NC3CCc4[nH]c5ccccc5c4C3)nc(-c3cncc(F)c3)nc12 (stereo not drawn) [I-278] | < 500 |

Other lines, results leading:

| IC50 [nM] | Compound |
| --- | --- |
| 1000 to 1500 | OCc1cnn2c(NC[C@@H](O)c3c[nH]c4ccccc34)cc(-c3cncc(F)c3)nc12 [I-144a, (1S)-2-[[5-(5-fluoro-3-pyridyl)-3-(hydroxymethyl)pyrazolo[1,5-a]pyrimidin-7-yl]amino]-1-(1H-indol-3-yl)ethanol] |
| 500 to 1000 | Cc1c(-c2cncc(F)c2)nc2c(C)cnn2c1NCCc1c[nH]c2ccccc12 [I-169, 5-(5-Fluoro-3-pyridyl)-N-[2-(1H-indol-3-yl)ethyl]-3,6-dimethyl-pyrazolo[1,5-a]pyrimidin-7-amine] |
| < 500 | CN(C)C(=O)c1cnn2c(NCCc3c[nH]c4ccccc34)cc(-c3cncc(F)c3)nc12 [I-56, 5-(5-Fluoro-3-pyridyl)-7-[2-(1H-indol-3-yl)ethylamino]-N,N-dimethyl-pyrazolo[1,5-a]pyrimidine-3-carboxamide] |
| 1000 to 1500 | Fc1cncc(-c2nc(N[C@@H]3CCc4[nH]c5ccccc5c4C3)n3ncc(C4CCCCC4)c3n2)c1 [I-123, (3R)—N-[8-Cyclohexyl-2-(5-fluoro-3-pyridyl)pyrazolo[1,5-a][1,3,5]triazin-4-yl]-2,3,4,9-tetrahydro-1H-carbazol-3-amine] |
| 500 to 1000 | Fc1cncc(-c2cc(NCCc3c[nH]c4cccnc34)n3ncc(Br)c3n2)c1 [I-192, 3-Bromo-5-(5-fluoro-3-pyridyl)-N-[2-(1H-pyrrolo[3,2-b]pyridin-3-yl)ethyl]pyrazolo[1,5-a]pyrimidin-7-amine] |
| < 500 | O=C(c1cnn2c(NCCc3c[nH]c4ccccc34)cc(-c3cncc(F)c3)nc12)N1CCCCC1 [I-55, [5-(5-Fluoro-3-pyridyl)-7-[2-(1H-indol-3-yl)ethylamino]pyrazolo[1,5-a]pyrimidin-3-yl]-(1-piperidyl)methanone] |
| 500 to 1000 | CC(C)c1cnn2c(N[C@@H]3Cc4ccc(O)cc4C3)cc(-c3cncc(F)c3)nc12 [I-234, (2R)-2-[[5-(5-Fluoro-3-pyridyl)-3-isopropyl-pyrazolo[1,5-a]pyrimidin-7-yl]amino]indan-5-ol] |
| > 1500 | CN1CCN(C(=O)c2cnn3c(N[C@@H]4CCc5[nH]c6ccccc6c5C4)cc(-c4cncc(F)c4)nc23)CC1 [I-29, [5-(5-Fluoro-3-pyridyl)-7-[[(3R)-2,3,4,9-tetrahydro-1H-carbazol-3-yl]amino]pyrazolo[1,5-a]pyrimidin-3-yl]-(4-methylpiperazin-1-yl)methanone] |
| > 1500 | CN(C)c1cnn2c(N[C@@H]3CCc4[nH]c5ccccc5c4C3)cc(-c3cncc(F)c3)nc12 [I-175, 5-(5-Fluoro-3-pyridyl)-N3,N3-dimethyl-N7-[(3R)-2,3,4,9-tetrahydro-1H-carbazol-3-yl]pyrazolo[1,5-a]pyrimidine-3,7-diamine] |
| > 1500 | CC(C)c1cnn2c(NC3CCc4cc(O)ccc4C3)cc(-c3cncc(F)c3)nc12 (stereo in doubt) [I-82b, (2R)-2-[[5-(5-fluoro-3-pyridyl)-3-isopropyl-pyrazolo[1,5-a]pyrimidin-7-yl]amino]tetralin-6-ol] |
| < 500 | Cc1[nH]c2c(F)cc(F)cc2c1CCNc1cc(-c2cncc(F)c2)nc2c(C3CC3)cnn12 [I-87, 3-Cyclopropyl-N-(2-(5,7-difluoro-2-methyl-1H-indol-3-yl)ethyl)-5-(5-fluoropyridin-3-yl)pyrazolo[1,5-a]pyrimidin-7-amine] |
| 500 to 1000 | Oc1ccc2c(c1)CC(Nc1cc(-c3cncc(F)c3)nc3ccnn13)C2 (stereo not drawn) [I-52, 2-[[5-(5-Fluoro-3-pyridyl)pyrazolo[1,5-a]pyrimidin-7-yl]amino]indan-5-ol] |
| < 500 | CC(O)c1cnn2c(NCCc3c[nH]c4ccccc34)cc(-c3cncc(F)c3)nc12 (stereo not drawn) [I-33, 1-[5-(5-Fluoro-3-pyridyl)-7-[2-(1H-indol-3-yl)ethylamino]pyrazolo[1,5-a]pyrimidin-3-yl]ethanol] |
| > 1500 | Cc1cnn2c(NC[C@@H](C)c3c[nH]c4ccccc34)cc(-c3cncc(F)c3)nc12 [I-160a, 5-(5-Fluoro-3-pyridyl)-N-[(2S)-2-(1H-indol-3-yl)propyl]-3-methyl-pyrazolo[1,5-a]pyrimidin-7-amine] |
| > 1500 | CC(C)c1cnn2c(N[C@H](C)Cc3ccc(O)cc3)cc(-c3cncc(F)c3)nc12 [I-97a, 4-[(2R)-2-[[5-(5-Fluoro-3-pyridyl)-3-isopropyl-pyrazolo[1,5-a]pyrimidin-7-yl]amino]propyl]phenol] |
| < 500 | COc1cccc2c(CCNc3cc(-c4cncc(F)c4)nc4c(C)cnn34)c[nH]c12 [I-179, 5-(5-Fluoro-3-pyridyl)-N-[2-(7-methoxy-1H-indol-3-yl)ethyl]-3-methyl-pyrazolo[1,5-a]pyrimidin-7-amine] |
| > 1500 | CC(C)c1cnn2c(N[C@@H]3CCc4ccc(O)cc4C3)cc(-c3cncc(F)c3)nc12 [I-94a, (3R)-3-[[5-(5-fluoro-3-pyridyl)-3-isopropyl-pyrazolo[1,5-a]pyrimidin-7-yl]amino]tetralin-6-ol] |
| < 500 | Cc1[nH]c2c(F)cc(F)cc2c1CCNc1nc(-c2cncc(F)c2)nc2c1ncn2C(C)C [I-11, N-(2-(5,7-Difluoro-2-methyl-1H-indol-3-yl)ethyl)-2-(5-fluoropyridin-3-yl)-9-isopropyl-9H-purin-6-amine] |
| > 1500 | Cc1cnn2c(N[C@@H](CO)Cc3c[nH]c4ccccc34)cc(-c3cncc(F)c3)nc12 [I-185] |
